In the test the test system is 931267-113-T-J1-PDC KRAS spheroid with HUVEC/MSC, viability. The test can be described thus: Anticancer human tumor 931267-113-T-J1-PDC patient-derived colon adenocarcinoma cell line growth inhibition [KRAS2]. Conditions: for viability, T/C: stronger effect = lower value. The source says: Multicellular complex tumor spheroid response to RAS pathway inhibitors in combination with a targeted agents in patient-derived cell lines with oncogenic KRAS variants from multiple cancer types
A high-throughput screen of multi-cell type tumor spheroids was designed to identify active combinations of targeted small molecules and KRAS pathway inhibitors. Complex spheroids include a stromal component modeled by human endothelial cells (HUVEC) and fibroblasts modeled by human mesenchymal stem cells (MSCs). The concentration ranges selected for each drug and investigational agent were based upon clinically achievable concentrations if the clinical Cmax of the agent was known.
Compounds. The drugs and investigational agents: BI-3406 (NSC825286), BAY-293 (NSC824723), batoprotafib (TNO155; NSC825523), sotorasib (AMG 510; NSC818433), MRTX1257 (NSC819558), elimusertib (BAY 1895344; NSC800525), molibresib (GSK525762; NSC774829), temuterkib (LY3214996; NSC803410), venetoclax (NSC766270), alisertib (NSC759677), olaparib (NSC753686), talazoparib (NSC767125), erdafitinib (NSC781556), ipatasertib (NSC767898), cabozantinib (NSC761068), nintedanib (NSC756659), abemaciclib (NSC768073), docetaxel (NSC628503), trametinib (NSC758246), and sapanisertib (NSC764658) were obtained from the National Cancer Institute (NCI) Developmental Therapeutics Program Chemical Repository. The FDA-approved anticancer drug set is available from the Developmental Therapeutics Program. […] The stock solutions were prepared in dimethyl sulfoxide (DMSO, Sigma-Aldrich, St. Louis, MO, cat. D2650) at 800-fold the tested concentration and stored at -70 degrees C prior to their use. All drugs and investigational agents were tested over a range starting from a high concentration at or near the clinical Cmax and decreasing in half-log increments. If the clinical Cmax for an agent had not been determined, the highest concentration tested was 10 microM.
Cell Culture. All cells were maintained in an incubator at 37 degrees C and 5% CO2 with 95% humidity. The PDC lines were cultured according to standard operating procedures established by the NCI PDMR (https://pdmr.cancer.gov/sops/default.htm). Briefly, all PDCs were thawed and cultured in Matrigel-coated flasks prepared with a working solution of 1X Ham's F-12 nutrient mix, without supplementation (Invitrogen, Waltham, MA, cat. 11765054), 100 U/mL penicillin-streptomycin (Invitrogen, cat. 15140122), and 2.5% Matrigel (Corning Inc., Corning, NY, cat. 354248) for the first three passages. All PDCs were cultured in complete DMEM/F-12 media containing advanced DMEM/F-12 (Invitrogen, cat. 12634028), 4.9% defined fetal bovine serum, heat inactivated (HyClone Laboratories Inc., Logan, UT, cat. SH30070.03HI), 389 ng/mL hydrocortisone (Sigma-Aldrich, cat. H4001), 9.7 ng/mL human EGF recombinant protein (Invitrogen, cat. PHG0313), 23.4 microg/mL adenine (Sigma-Aldrich, cat. A2786), 97.3 U/mL penicillin-streptomycin (Invitrogen, cat. 15140122), 1.9 mM L-glutamine (Invitrogen, cat. 25030081), and 9.7 microM Y-27632 dihydrochloride (Tocris Bioscience, Bristol, United Kingdom, cat. 1254). The PDCs were cultured in complete DMEM/F12 media without 9.7 microM Y-27632 dihydrochloride for at least two passages prior to the screen. The established cell line HOP-62 was cultured in RPMI 1640 medium, HEPES (Invitrogen, cat. 22400105) with 10% defined fetal bovine serum (HyClone Laboratories Inc., cat. SH30070.03) and 2 mM L-glutamine (Invitrogen, cat. 25030081). The pooled donor HUVEC were cultured in endothelial cell growth medium 2 (PromoCell, Heidelberg, Germany, cat. C-22011) and the hMSC were cultured in mesenchymal stem cell growth medium 2 (PromoCell, cat. C-28009). For all experiments, HUVEC and hMSC were used at passages </=5, while the malignant cell lines were used at passages </=15. […]

Where [1] appears, read: compound alone, run of 08/19/2021.
The mark [2] stands for this setting: compound alone, run of 08/26/2021.
Where [3] appears, read: compound alone, run of 09/02/2021.

Among the data in PubChem BioAssay AID1963863 (Molecular Pharmacology Branch, DTP, NCI, 2024) are viability, T/C and IC50 values, retold here.

Several values for one entry are separate records, joined by “and”; a condition that tells them apart may be missing. Equal values may be shown once.
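Further: compound exposure lasted 7 days before the readout.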

Take `C=CC(=O)N1CCN(c2nc(=O)n(-c3c(C)ccnc3C(C)C)c3nc(-c4c(O)cccc4F)c(F)cc23)C(C)C1` (stereo unspecified): the viability, T/C (commonly the result in the treated group divided by that in the control group, in per cent) (compound 0.1 µM) was 92.7% [middle of 17 runs]. Moreover, the IC50 (usually the midpoint of a concentration-inhibition curve) is greater than 10 µM under setting [1], greater than 10 µM under setting [2] and greater than 10 µM under setting [3].

Take `CC(=O)Nc1cccc(-n2c(=O)n(C3CC3)c(=O)c3c(Nc4ccc(I)cc4F)n(C)c(=O)c(C)c32)c1`: the viability, T/C runs as follows: (compound 0.0001 µM) 92.7% [middle of 5 runs]; (compound 0.000316 µM) 89.7% [middle of 5 runs]; (compound 0.001 µM) 84.2% [middle of 5 runs]; (compound 0.00316 µM) 64.2% [middle of 5 runs]; (compound 0.01 µM) 55% [middle of 5 runs]; (compound 0.0316 µM) 14% [middle of 5 runs]. Also, the IC50 (curve of compound) was 9.89 nM [middle of 5 runs].

For `CC(=O)OC12COC1CC(O)C1(C)C(=O)C(O)C3=C(C)C(OC(=O)C(O)C(NC(=O)OC(C)(C)C)c4ccccc4)CC(O)(C(OC(=O)c4ccccc4)C21)C3(C)C` (stereo unspecified), the viability, T/C (compound 0.0316 µM) is 91.1% [middle of 5 runs]; the viability, T/C (compound 0.1 µM) was 84.7% [middle of 5 runs]; the viability, T/C (compound 0.316 µM) was 86.2% [middle of 5 runs]. For the same molecule, the 50% inhibitory concentration (IC50) (curve of compound) is greater than 3.16 µM.

On to `CC(C)NCC(C(=O)N1CCN(c2ncnc3c2C(C)CC3O)CC1)c1ccc(Cl)cc1` (stereo unspecified), for which the viability, T/C is 91.2% [middle of 5 runs] (compound 0.0316 µM); 89.6% [middle of 5 runs] (compound 0.316 µM); 78.3% [middle of 5 runs] (compound 1 µM); 65.2% [middle of 5 runs] (compound 3.16 µM); 42.5% [middle of 5 runs] (compound 10 µM).

`CC(C)n1nc(-c2ccc3oc(N)nc3c2)c2c(N)ncnc21`: the viability, T/C was 90.9% [middle of 5 runs] (compound 0.000316 µM); 92.8% [middle of 5 runs] (compound 0.001 µM); 66.5% [middle of 5 runs] (compound 0.00316 µM); 26.9% [middle of 5 runs] (compound 0.0316 µM); 23.9% [middle of 5 runs] (compound 0.1 µM).

On to `CC1(C)CCC(CN2CCN(c3ccc(C(=O)NS(=O)(=O)c4ccc(NCC5CCOCC5)c([N+](=O)[O-])c4)c(Oc4cnc5[nH]ccc5c4)c3)CC2)=C(c2ccc(Cl)cc2)C1`, for which the viability, T/C (compound 0.0316 µM) is 99.5% [middle of 5 runs]; the viability, T/C (compound 0.1 µM) is 89.5% [middle of 5 runs]; the viability, T/C (compound 0.316 µM) was 91.4% [middle of 5 runs]; the viability, T/C (compound 1 µM) was 96.9% [middle of 5 runs]; the viability, T/C (compound 3.16 µM) is 33.6% [middle of 5 runs]; the viability, T/C (compound 10 µM) is 10.7% [middle of 5 runs]. The IC50 (curve of compound) is 2.34 µM [middle of 5 runs].

Regarding `CC1COCCN1c1cc(-c2ccnn2C)c2ccnc(-c3ccn[nH]3)c2n1` (stereo unspecified), the viability, T/C by setting is: (compound 0.1 µM) 23.9% [middle of 5 runs]; (compound 0.316 µM) 20.2% [middle of 5 runs]; (compound 1 µM) 21.8% [middle of 5 runs]; (compound 3.16 µM) 20.6% [middle of 5 runs]. For the same molecule, the IC50 (curve of compound) was 54.7 nM [middle of 5 runs].

`CC1OCC2(CCN(c3cnc(Sc4ccnc(N)c4Cl)c(N)n3)CC2)C1N` (stereo unspecified): under “compound 0.0316 µM”, the viability, T/C was 97.1% and 83.5% and 83%. In addition, the IC50 was greater than 10 µM under setting [1], greater than 10 µM under setting [2], greater than 10 µM under setting [3] and greater than 10 µM (curve of compound).

`CCN1CCN(Cc2ccc(Nc3ncc(F)c(-c4cc(F)c5nc(C)n(C(C)C)c5c4)n3)nc2)CC1`: the viability, T/C (compound 0.00316 µM) is 85.5% [middle of 5 runs]; the viability, T/C (compound 0.01 µM) is 88.8% [middle of 5 runs]; the viability, T/C (compound 0.0316 µM) was 70.4% [middle of 5 runs]; the viability, T/C (compound 0.1 µM) is 70% [middle of 5 runs]; the viability, T/C (compound 0.316 µM) was 65% [middle of 5 runs]; the viability, T/C (compound 1 µM) is 48.4% [middle of 5 runs]. Besides, the IC50 (curve of compound) was > 1 µM and 0.595 µM and 0.96 µM.

Regarding `CCNC(=O)CC1N=C(c2ccc(Cl)cc2)c2cc(OC)ccc2-n2c(C)nnc21` (stereo unspecified), the viability, T/C was 92.4% [middle of 5 runs] (compound 0.0316 µM); 83% [middle of 5 runs] (compound 0.1 µM); 72.3% [middle of 5 runs] (compound 0.316 µM); 60.5% [middle of 5 runs] (compound 1 µM); 47.1% [middle of 5 runs] (compound 3.16 µM); 40.2% [middle of 5 runs] (compound 10 µM).

In the case of `CN(C)C/C=C/C(=O)Nc1cc2c(Nc3ccc(F)c(Cl)c3)ncnc2cc1O[C@H]1CCOC1`, the viability, T/C by setting is: (compound 0.000316 µM) 94.5% [middle of 5 runs]; (compound 0.01 µM) 79.1% [middle of 5 runs]; (compound 0.1 µM) 79% [middle of 5 runs]. For the same molecule, the IC50 (curve of compound) was greater than 0.1 µM.

For `COC(=O)c1ccc2c(C(=Nc3ccc(N(C)C(=O)CN4CCN(C)CC4)cc3)c3ccccc3)c(O)[nH]c2c1`, the viability, T/C reads like this: (compound 0.0316 µM) 85.8% [middle of 5 runs]; (compound 0.1 µM) 78.5% [middle of 5 runs]; (compound 0.316 µM) 69.6% [middle of 5 runs]; (compound 1 µM) 59.2% [middle of 5 runs]; (compound 3.16 µM) 0.6% [middle of 4 runs]; (compound 10 µM) 0.39% [middle of 4 runs]. Moreover, the half-maximal inhibitory concentration (IC50) (curve of compound) was 1.2 µM [middle of 5 runs].

As for `COc1cc(Nc2ncc3c(n2)-c2ccc(Cl)cc2C(c2c(F)cccc2OC)=NC3)ccc1C(=O)O`, the viability, T/C runs as follows: (compound 0.0316 µM) 83.6% [middle of 5 runs]; (compound 0.1 µM) 79.6% [middle of 5 runs]; (compound 0.316 µM) 79.4% [middle of 5 runs]; (compound 1 µM) 83.3% [middle of 5 runs]; (compound 3.16 µM) 85.9% [middle of 5 runs]; (compound 10 µM) 72.5% [middle of 5 runs]. Where the note is “curve of compound”, the IC50 was greater than 10 µM.

On to `Cn1nccc1Nc1nccc(-c2cc3c(s2)C(C)(C)N(CCN2CCOCC2)C3=O)n1`, for which the viability, T/C reads like this: (compound 0.0316 µM) 91% [middle of 5 runs]; (compound 0.316 µM) 68.6% [middle of 5 runs]; (compound 1 µM) 30.6% [middle of 5 runs]; (compound 3.16 µM) 7.98% [middle of 5 runs]; (compound 10 µM) 4.32% [middle of 5 runs]. For the same molecule, where the note is “curve of compound”, the 50% inhibitory concentration (IC50) is 574 nM [middle of 4 runs].

In the case of `Cn1ncnc1[C@H]1c2n[nH]c(=O)c3cc(F)cc(c23)N[C@@H]1c1ccc(F)cc1`, the viability, T/C runs as follows: (compound 0.000316 µM) 102% [middle of 5 runs]; (compound 0.001 µM) 97.8% [middle of 5 runs]; (compound 0.00316 µM) 98.9% [middle of 5 runs]; (compound 0.01 µM) 88.3% [middle of 5 runs]; (compound 0.0316 µM) 94.4% [middle of 5 runs]. Further, the IC50 (curve of compound) was greater than 0.1 µM.

Take `O=C(c1cc(Cc2n[nH]c(=O)c3ccccc23)ccc1F)N1CCN(C(=O)C2CC2)CC1`: the viability, T/C is 83% [middle of 5 runs] (compound 0.0316 µM); 93% [middle of 5 runs] (compound 0.1 µM); 87.8% [middle of 5 runs] (compound 0.316 µM); 88.3% [middle of 5 runs] (compound 3.16 µM); 80.5% [middle of 5 runs] (compound 10 µM). Moreover, for the setting “curve of compound”, the 50% inhibitory concentration (IC50) is greater than 10 µM.
